# Source: US10100097B2, “GIP-GLP-1 dual agonist compounds and methods” (Zealand Pharma A/S, priority 2012, dated 2018)
# Square brackets hold non-standard residues; d marks the D form. Peptide text beside a SMILES is read from it. Aib = CC(C)(N)C(=O)O
# Target: T1, human GLP-1 R (Homo sapiens, UniProt P43220)
# T1 construct: expressed in transfected cells
# Assay: Human GLP-1 receptor (GLP-1 R) activity assay, cAMP induction (AlphaScreen cAMP kit)
# Type: cell-based
# Settings: HEK293 cells expressing the human GLP-1 R, 15 min at 37° C., average values of multiple determinations, read-out: GLP1 R (EC50 in nM)
# Experimental: Human GIP Receptor (GIP R) and GLP-1 Receptor (GLP-1 R) Activity Assay
# In vitro effects of peptide conjugates of the invention were assessed by measuring the induction of cAMP following stimulation of the respective receptor by GIP, GLP1 or analogues of these, as outlined in the invention, using the AlphaSceen® cAMP kit from Perkin-Elmer according to instructions. Briefly. HEK293 cells expressing the human GIP R or GLP-1 R (stable cell lines generated through transfection of the cDNA for human GIP R or GLP-1 and selection of stable clones) were seeded at 30,000 cells/well in 96-well microtiter plates coated with 0.01% poly-L-lysine, and grown for 1 day in culture in 200 μl growth medium (DMEM, 10% FCS, Penicillin (100 IU/ml), Streptomycin (100 μg/ml)). On the day of analysis, growth medium was removed and the cells were washed once with […] Tyrode's buffer (Tyrode's Salts (9.6 g/1), 10 mM HEPES, pH 7.4). […] The Assay buffer was removed and cells are lysed in 80 μl Lysis buffer (0.1% w/v BSA, 5 mM HEPES, 0.3% v/v Tween-20) per well. From each well 10 μl lysed cells was transferred to a 384-well plate and mixed with 15 μl bead-mix (1 Unit/15 μl anti-cAMP Acceptor Beads, 1 Unit/15 μl Donor Beads, and 1 Unit/15 μl Biotinylated cAMP in Assay Buffer). The plates were mixed and incubated in the dark for an hour at room temperature before measuring using an Envision™ plate reader (Perkin-Elmer).
# T1 sequence (P43220 24-463): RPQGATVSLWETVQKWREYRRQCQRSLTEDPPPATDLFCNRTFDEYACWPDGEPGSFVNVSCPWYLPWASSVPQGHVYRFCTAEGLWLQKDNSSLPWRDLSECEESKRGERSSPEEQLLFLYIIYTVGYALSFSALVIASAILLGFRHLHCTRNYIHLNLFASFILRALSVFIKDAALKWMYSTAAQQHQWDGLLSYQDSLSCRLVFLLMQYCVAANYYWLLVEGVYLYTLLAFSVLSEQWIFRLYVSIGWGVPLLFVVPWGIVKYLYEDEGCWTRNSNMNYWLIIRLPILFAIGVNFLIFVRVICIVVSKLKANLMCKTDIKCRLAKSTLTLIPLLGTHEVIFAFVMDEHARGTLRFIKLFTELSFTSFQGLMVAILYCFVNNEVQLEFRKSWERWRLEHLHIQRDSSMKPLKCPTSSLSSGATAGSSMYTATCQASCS
row,EC50 [nM],Compound
1,0.0087,CC[C@H](C)[C@H](NC(=O)[C@H](CO)NC(=O)[C@H](Cc1ccc(O)cc1)NC(=O)[C@H](CC(=O)O)NC(=O)[C@H](CO)NC(=O)[C@@H](NC(=O)[C@H](Cc1ccccc1)NC(=O)[C@@H](NC(=O)CNC(=O)[C@H](CCC(=O)O)NC(=O)C(C)(C)NC(=O)[C@@H](N)Cc1ccc(O)cc1)[C@@H](C)O)[C@@H](C)O)C(=O)N[C@@H](Cc1ccc(O)cc1)C(=O)N[C@@H](CC(C)C)C(=O)N[C@@H](CCC(=O)O)C(=O)N[C@@H](CCCCN)C(=O)N[C@@H](CCCCN)C(=O)N[C@@H](C)C(=O)N[C@@H](CCC(N)=O)C(=O)N[C@@H](CCCNC(=N)N)C(=O)N[C@@H](C)C(=O)N[C@@H](Cc1ccccc1)C(=O)N[C@H](C(=O)N[C@@H](CC(N)=O)C(=O)N[C@@H](Cc1c[nH]c2ccccc12)C(=O)N[C@@H](CC(C)C)C(=O)N[C@@H](CC(C)C)C(=O)N[C@@H](C)C(=O)NC(C)(C)C(=O)N[C@@H](CCCCN)C(N)=O)C(C)C [Compound 14] (H-Y[Aib]EGTFTSDYSIYLEKKAQRAFVNWLLA[Aib]K-NH2)
2,0.009,CC[C@H](C)[C@H](NC(=O)[C@H](CO)NC(=O)[C@H](Cc1ccc(O)cc1)NC(=O)[C@H](CC(=O)O)NC(=O)[C@H](CO)NC(=O)[C@@H](NC(=O)[C@H](Cc1ccccc1)NC(=O)[C@@H](NC(=O)CNC(=O)[C@H](CCC(=O)O)NC(=O)C(C)(C)NC(=O)[C@@H](N)Cc1ccc(O)cc1)[C@@H](C)O)[C@@H](C)O)C(=O)N[C@@H](Cc1ccc(O)cc1)C(=O)N[C@@H](CC(C)C)C(=O)N[C@@H](CC(=O)O)C(=O)N[C@@H](CCCCN)C(=O)N[C@@H](CCCCN)C(=O)N[C@@H](C)C(=O)N[C@@H](CCC(N)=O)C(=O)N[C@@H](CCCNC(=N)N)C(=O)N[C@@H](C)C(=O)N[C@@H](Cc1ccccc1)C(=O)N[C@H](C(=O)N[C@@H](CC(N)=O)C(=O)N[C@@H](Cc1c[nH]c2ccccc12)C(=O)N[C@@H](CC(C)C)C(=O)N[C@H](C(=O)N[C@@H](C)C(=O)NC(C)(C)C(=O)N[C@@H](CCCCN)C(N)=O)C(C)C)C(C)C [Compound 21] (H-Y[Aib]EGTFTSDYSIYLDKKAQRAFVNWLVA[Aib]K-NH2)

row,Compound,EC50 [nM]
1,CC[C@H](C)[C@H](NC(=O)[C@H](CO)NC(=O)[C@H](Cc1ccc(O)cc1)NC(=O)[C@H](CC(=O)O)NC(=O)[C@H](CO)NC(=O)[C@@H](NC(=O)[C@H](Cc1ccccc1)NC(=O)[C@@H](NC(=O)CNC(=O)[C@H](CCC(=O)O)NC(=O)C(C)(C)NC(=O)[C@@H](N)Cc1ccc(O)cc1)[C@@H](C)O)[C@@H](C)O)C(=O)N[C@@H](Cc1ccc(O)cc1)C(=O)N[C@@H](CC(C)C)C(=O)N[C@@H](CC(=O)O)C(=O)N[C@@H](CO)C(=O)N[C@@H](CCCCN)C(=O)N[C@@H](C)C(=O)N[C@@H](C)C(=O)N[C@@H](Cc1c[nH]cn1)C(=O)N[C@@H](CC(=O)O)C(=O)N[C@@H](Cc1ccccc1)C(=O)N[C@H](C(=O)N[C@@H](CCC(=O)O)C(=O)N[C@@H](Cc1c[nH]c2ccccc12)C(=O)N[C@@H](CC(C)C)C(=O)N[C@@H](CC(C)C)C(=O)N[C@@H](CO)C(=O)N[C@@H](C)C(=O)NCC(=O)N1CCC[C@H]1C(=O)N[C@@H](CO)C(=O)N[C@@H](CO)C(=O)NCC(=O)N[C@@H](C)C(=O)N1CCC[C@H]1C(=O)N1CCC[C@H]1C(=O)N1CCC[C@H]1C(=O)N[C@@H](CO)C(N)=O)C(C)C [Compound 55] (H-Y[Aib]EGTFTSDYSIYLDSKAAHDFVEWLLSAGPSSGAPPPS-NH2),0.0087
